Assay results reported in patent US8748435B2, “Pyrazolo pyrimidine derivatives” (Novartis AG, priority 2011, dated 2014).

What was measured:
human GPR4 [1] = target: T1, human GPR4 (Homo sapiens (Human), UniProt P46093); experiment: Human GPR4 binding assay with additional human serum albumin (4% HSA); details: binding assay with 4% HSA
human GPR4 [2] = target: T1, human GPR4; experiment: Human GPR4 binding assay ([3H]4 radioligand, membranes of 300.19 cells expressing human GPR4); details: radioligand [3H]4 (example 39), membranes of 300.19 cells expressing human GPR4
Human H3 = Human H3 (Homo sapiens (Human), UniProt Q9Y5N1); experiment: Human H3 binding assay (SPA, [3H]-R-alpha-Methylhistamine); details: 3 nM [3H]-R-alpha-Methylhistamine
human GPR4 [3] = target: T1, human GPR4; experiment: Cell-based assay for human GPR4 activity (pH-induced cAMP formation, HTRF, HeLa cells); details: HeLa cells stably expressing human GPR4, pH-induced cAMP
rat GPR4 = rat GPR4 (Rattus norvegicus (Rat), UniProt Q4KLH9); experiment: Rat GPR4 cAMP assay; format: cell-based; details: read-out: r cAMP IC50
mouse GPR4 = mouse GPR4 (Mus musculus (Mouse), UniProt Q8BUD0); experiment: Mouse GPR4 cAMP assay; format: cell-based
[4] = test system: VEGF-induced angiogenesis; experiment: GPR4 activity in VEGF-induced angiogenesis in mice (growth factor implant model); format: in vivo; details: po 30 mg/kg bid, day 4 after chamber implantation
Description: d) GPR4 Activity in VEGF-Induced Angiogenesis in Mice
The functional activity of GPR4 was determined in the angiogenesis growth factor implant model. Porous tissue chambers made of perfluoro-alkoxy-Teflon were filled with 0.8% agar and 20 U/ml heparin supplemented with or without 8 μg/ml recombinant human VEGF. The solutions were maintained at 39° C. prior to the filling procedure. Mice were anesthetized using 3% isoflurane inhalation. For subcutaneous implantation, a small skin incision was made at the base of the tail to allow the insertion of an implant trocar. The chamber was implanted under aseptic conditions through the small incision onto the back of the animal. The skin incision was closed by wound clips. The compounds were applied po at 30 mg/kg bid starting at the day of the chamber implantation.
On the 4th day after implantation, animals were sacrificed using CO2. Chambers were excised and the vascularized fibrous tissue formed around each implant carefully removed and weighed and expressed as Δ tissue weight % [((compound/VEGF)−(no compound/no VEGF))/((no compound/VEGF)−no compound/no VEGF))×100]. Body weight was used to monitor the general condition of the mice.

[5] = test system: antigen-induced arthritis (knee swelling); experiment: Rat antigen-induced arthritis model; format: in vivo; details: oral gavage, AUC of R/L knee swelling ratio vs control
Description: e) GPR4 Activity in Rat Antigen-induced Arthritis Model Female Lewis rats were sensitised intradermally on the back at two sites to methylated bovine serum albumin (mBSA) homogenised 1:1 with complete Freund's adjuvant on days −21 and −14 (0.1 ml containing 1 mg/ml mBSA). On day 0, the right knee received […] of 10 mg/ml mBSA in 5% glucose solution (antigen injected knee), while the left knee received […] of 5% glucose solution alone (vehicle injected knee). The diameters of the left and right knees were then measured using calipers immediately after the intra-articular injections and again on days 2, 4 and 7. The compounds of the invention were administered twice daily by oral gavage; vehicle (saline) at 5 ml/kg, and dexamethasone at 0.3 mg/kg was given as a control. Right knee swelling was calculated as a ratio of left knee swelling, and the R/L knee swelling ratio plotted against time to give Area Under the Curve (AUC) graphs for control and treatment groups. The percentage inhibition of the individual treatment group AUCs were calculated vs the control group AUC (0% inhibition).

CFA-induced hyperalgesia = experiment: Established rat hyperalgesia model (CFA); format: in vivo; details: gavage
Description: f) Established Rat Hyperalgesia Model
Naïve withdrawal thresholds of both hind paws were determined by using an increasing pressure stimulus placed onto the dorsal surface of each paw using an analgesymeter. Delayed inflammatory pain was then induced by intra-plantar injection of 25 μl of complete Freund's adjuvant (CFA) into one hindpaw with the contralateral paw acting as the control. […] One hour later, paw withdrawal thresholds were re-measured on both the ipsilateral (CFA-injected) and contralateral (uninjected) paw; measurements were repeated at 3 hrs and 6 hrs post dosing. The reversal of hyperalgesia was calculated using the following formula: Reversal (%)=100×(postdose ipsilateral threshold−predose ipsilateral threshold) (naïve ipsilateral threshold−predose ipsilateral threshold).

T1 sequence (P46093 whole entry): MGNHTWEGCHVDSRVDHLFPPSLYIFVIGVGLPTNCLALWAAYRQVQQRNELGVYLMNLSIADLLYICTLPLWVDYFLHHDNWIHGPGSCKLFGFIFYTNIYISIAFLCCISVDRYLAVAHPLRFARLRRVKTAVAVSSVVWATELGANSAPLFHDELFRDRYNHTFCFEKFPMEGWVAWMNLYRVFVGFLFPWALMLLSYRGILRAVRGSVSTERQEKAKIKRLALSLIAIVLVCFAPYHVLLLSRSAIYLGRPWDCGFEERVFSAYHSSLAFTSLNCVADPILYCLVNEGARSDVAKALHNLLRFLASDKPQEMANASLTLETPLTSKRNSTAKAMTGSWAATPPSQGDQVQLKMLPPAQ
Sequence of mouse GPR4 (Q8BUD0 whole entry): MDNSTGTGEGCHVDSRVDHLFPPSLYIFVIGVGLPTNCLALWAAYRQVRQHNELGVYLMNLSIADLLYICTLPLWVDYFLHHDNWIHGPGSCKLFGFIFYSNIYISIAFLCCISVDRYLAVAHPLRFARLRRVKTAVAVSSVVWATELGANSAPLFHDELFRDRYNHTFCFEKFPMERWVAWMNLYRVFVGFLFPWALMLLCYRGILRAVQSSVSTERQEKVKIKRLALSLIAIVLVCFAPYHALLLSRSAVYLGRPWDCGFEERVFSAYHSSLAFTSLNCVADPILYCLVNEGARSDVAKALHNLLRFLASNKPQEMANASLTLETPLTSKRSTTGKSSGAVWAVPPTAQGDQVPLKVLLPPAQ
Sequence of rat GPR4 (Q4KLH9 whole entry): as the sequence (Q8BUD0 whole entry) above, with G8W, H51R, S339T counted along it
Sequence of Human H3 (Q9Y5N1 whole entry): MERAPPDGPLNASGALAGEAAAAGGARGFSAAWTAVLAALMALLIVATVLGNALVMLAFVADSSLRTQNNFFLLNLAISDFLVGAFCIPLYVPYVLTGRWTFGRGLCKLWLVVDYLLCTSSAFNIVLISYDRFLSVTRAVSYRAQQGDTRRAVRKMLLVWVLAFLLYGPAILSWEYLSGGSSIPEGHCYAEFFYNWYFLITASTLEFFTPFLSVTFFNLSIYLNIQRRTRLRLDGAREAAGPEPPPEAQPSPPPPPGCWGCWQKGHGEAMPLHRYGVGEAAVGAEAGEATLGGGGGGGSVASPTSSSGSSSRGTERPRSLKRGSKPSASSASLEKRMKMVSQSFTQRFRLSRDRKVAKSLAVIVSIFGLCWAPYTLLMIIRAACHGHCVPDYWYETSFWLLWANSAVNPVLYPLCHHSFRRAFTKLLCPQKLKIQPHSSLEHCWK

Structure (SMILES) | IC50 (human GPR4 [1]) [µM] | IC50 (human GPR4 [2]) [µM] | IC50 (Human H3) [µM] | IC50 (human GPR4 [3]) [µM] | IC50 (rat GPR4) [µM] | IC50 (mouse GPR4) [µM] | Δ tissue weight [4] [%] | Inhibition of swelling ([5]; 30 mg/kg bid) [%] | Inhibition of swelling ([5]; 60 mg/kg bid) [%] | % reversal of hyperalgesia (CFA-induced hyperalgesia; 3 mg/kg, 1 h) [%] | % reversal of hyperalgesia (CFA-induced hyperalgesia; 3 mg/kg, 3 h) [%] | % reversal of hyperalgesia (CFA-induced hyperalgesia; 3 mg/kg, 6 h) [%] | % reversal of hyperalgesia (CFA-induced hyperalgesia; 10 mg/kg, 1 h) [%] | % reversal of hyperalgesia (CFA-induced hyperalgesia; 10 mg/kg, 3 h) [%] | % reversal of hyperalgesia (CFA-induced hyperalgesia; 10 mg/kg, 6 h) [%] | % reversal of hyperalgesia (CFA-induced hyperalgesia; 30 mg/kg, 1 h) [%] | % reversal of hyperalgesia (CFA-induced hyperalgesia; 30 mg/kg, 3 h) [%] | % reversal of hyperalgesia (CFA-induced hyperalgesia; 30 mg/kg, 6 h) [%] | Inhibition of swelling ([5]; 90 mg/kg bid) [%]
CCc1nn2c(C)cc(C)nc2c1Cc1ccc(/C=C/CN2CCN[C@@H](C)C2)cc1 [Example 9, 2-Ethyl-5,7-dimethyl-3-{4-[(E)-3-((S)-3-methyl-piperazin-1-yl)-propenyl]-benzyl}-pyrazolo[1,5-a]pyrimidine] | 0.006 | 0.019 | 18 | 0.059 | 1.44 | 0.89 | 44 |  |  |  |  |  |  |  |  |  |  |  | 
CCc1nn2c(C)cc(C)nc2c1Cc1ccc(-n2cc(CN3CCNCC3)cn2)cc1 [Example 31, 2-Ethyl-5,7-dimethyl-3-[4-(4-piperazin-1-ylmethyl-pyrazol-1-yl)-benzyl]-pyrazolo[1,5-a]pyrimidine] | 0.061 | 0.043 | > 30 | 0.053 | 1.33 | 0.511 |  | 24 | 38 |  |  |  |  |  |  |  |  |  | 
CCc1nn2c(C)cc(C)nc2c1Cc1ccc(-c2nnc(C3CCNCC3)o2)cc1 [Example 35, 2-Ethyl-5,7-dimethyl-3-[4-(5-piperidin-4-yl-[,3,4]oxadiazol-2-yl)-benzyl]-pyrazolo[1,5-a]pyrimidine] |  |  |  |  |  |  | 49 | 26 | 34 | 36 | 25 | 5 | 43 | 36 | 15 | 62 | 47 | 25 | 40
